Columns and labels:
[1] = tested on: Beet Armyworm (BAW) (Spodoptera exigua); experiment: Bioassays on Beet Armyworm (BAW), 128-well diet tray assay; type: in vivo; conditions: 168 h, 50 μg/cm^2 test compound on artificial diet, second instar larvae, 25° C., five to seven days, average of eight wells, read-out: BAW Rating (% mortality)
Procedure: (§1) Certain molecules disclosed in this document were tested against BAW and CEW using procedures described in the following examples. In the reporting of the results, the “BAW & CEW Rating Table” was used (See Table Section).
Bioassays on BAW (Spodoptera exigua)
Bioassays on BAW were conducted using a 128-well diet tray assay. one to five second instar BAW larvae were placed in each well (3 mL) of the diet tray that had been previously filled with 1 mL of artificial diet to which 50 μg/cm^2 of the test compound (dissolved in 50 μL of 90:10 acetone-water mixture) had been applied (to each of eight wells) and then allowed to dry. Trays were covered with a clear self-adhesive cover, and held at 25° C., 14:10 light-dark for five to seven days. Percent mortality was recorded for the larvae in each well; activity in the eight wells was then averaged. The results are indicated in the table entitled “Table 3: Assay Results” (See Table Section).

[2] = tested on: Corn Earworm (CEW) (Helicoverpa zea); experiment: Bioassays on Corn Earworm (CEW), 128-well diet tray assay; type: in vivo; conditions: 168 h, 50 μg/cm^2 test compound on artificial diet, second instar larvae, 25° C., five to seven days, average of eight wells, read-out: CEW Rating (% mortality)
Procedure: as §1
Bioassays on CEW (Helicoverpa zea)
Bioassays on CEW were conducted using a 128-well diet tray assay. one to five second instar CEW larvae were placed in each well (3 mL) of the diet tray that had been previously filled with 1 mL of artificial diet to which 50 μg/cm^2 of the test compound (dissolved in 50 μL of 90:10 acetone-water mixture) had been applied (to each of eight wells) and then allowed to dry. Trays were covered with a clear self-adhesive cover, and held at 25° C., 14:10 light-dark for five to seven days. Percent mortality was recorded for the larvae in each well; activity in the eight wells was then averaged. The results are indicated in the table entitled “Table 3: Assay Results” (See Table Section).

Row | Compound | mortality at 50 µg/cm2 [1] [%] | mortality at 50 µg/cm2 [2] [%]
1 | O=C(CNC(=O)c1ccc(/C=C/C(c2cc(Cl)c(F)c(Cl)c2)C(F)(F)F)cc1Br)NCC(F)(F)F (stereo not drawn) [AC79, (E)-2-bromo-4-(3-(3,5-dichloro-4-fluorophenyl)-4,4,4-trifluorobut-1-en-1-yl)-N-(2-oxo-2-((2,2,2-trifluoroethyl)amino)ethyl)benzamide] | 50 to 100 | 50 to 100
2 | Cc1cc(/C=C/C(c2cc(Cl)cc(Cl)c2)C(F)(F)F)cnc1C(=O)NCc1ccc(Cl)nc1 (stereo not drawn) [AC60] | 50 to 100 | 50 to 100
3 | Cc1cc(/C=C/C(c2cc(Cl)cc(Cl)c2)C(F)(F)F)ccc1C(=O)N(C)Cc1ccc(Cl)nc1 (stereo not drawn) [AC117] | 50 to 100 | 0
4 | O=C(CC(F)(F)F)NCc1ncc(/C=C/C(c2cc(Cl)c(Cl)c(Cl)c2)C(F)(F)F)cc1Cl (stereo not drawn) [CC44, (E)-N-((3-chloro-5-(4,4,4-trifluoro-3-(3,4,5-trichlorophenyl)-but-1-en-1-yl)pyridin-2-yl)methyl)-3,3,3-trifluoropropanamide] | 50 to 100 | 50 to 100
5 | O=C(NC1CCN(CCO)CC1)c1ccc(/C=C/C(c2cc(Cl)c(Cl)c(Cl)c2)C(F)(F)F)cc1Br (stereo not drawn) [AC109, (E)-2-bromo-N-(1-(2-hydroxyethyl)piperidin-4-yl)-4-(4,4,4-trifluoro-3-(3,4,5-trichlorophenyl)but-1-en-1-yl)benzamide] | 0 | 0
6 | COc1ccc(CNC(=O)c2ccc(/C=C/C(c3cc(Cl)c(Cl)c(Cl)c3)C(F)(F)F)cc2Br)cn1 (stereo not drawn) [AC97] | 0 | 0
7 | N#Cc1cc(/C=C/C(c2cccc(Cl)c2)C(F)(F)F)ccc1-n1cncn1 (stereo not drawn) [DC32] | 0 | 0
8 | O=C(CC(F)(F)F)NC1CCc2cc(/C=C/C(c3cc(Cl)c(F)c(Cl)c3)C(F)(F)F)ccc21 (stereo not drawn) [BC8] | 50 to 100 | 50 to 100
9 | O=C(c1ccc(/C=C/C(c2cc(Cl)c(Cl)c(Cl)c2)C(F)(F)F)cc1Br)N1CCN(CC(F)(F)F)CC1 (stereo not drawn) [AC101] | 0 | 0
10 | O=C(CNC(=O)c1ccc(/C=C/C(c2cc(Cl)cc(Cl)c2)C(F)(F)F)cc1Cl)NCC(F)(F)F (stereo not drawn) [AC57] | 50 to 100 | 50 to 100
11 | N#Cc1cc(/C=C/C(c2cc(Cl)c(Cl)c(Cl)c2)C(F)(F)F)ccc1-n1cncn1 (stereo not drawn) [DC31] | 50 to 100 | 50 to 100
12 | N#Cc1cc(/C=C\C(c2cc(Cl)c(F)c(Cl)c2)C(F)(F)F)ccc1-n1cncn1 (stereo not drawn) [DC46] | 50 to 100 | 50 to 100
13 | N#Cc1cc(/C=C/C(c2cc(Cl)c(F)c(Cl)c2)C(F)(F)F)ccc1-n1cncn1 (stereo not drawn) [DC35] | 50 to 100 | 50 to 100
14 | O=C(CNC(=O)c1ccc(/C=C/C(c2cc(Cl)c(F)c(Cl)c2)C(F)(F)F)cc1[N+](=O)[O-])NCC(F)(F)F (stereo not drawn) [AC98] | 50 to 100 | 50 to 100
15 | CCc1cc(/C=C/C(c2cc(Cl)c(F)c(Cl)c2)C(F)(F)F)ccc1C(=O)NC1CS(=O)(=O)C1 (stereo not drawn) [AC86] | 50 to 100 | 50 to 100
16 | CCNC(=O)NCc1ccc(/C=C/C(c2cc(Cl)c(Cl)c(Cl)c2)C(F)(F)F)cc1Br (stereo not drawn) [CC33] | 50 to 100 | 50 to 100
17 | FC(F)(F)c1cc(/C=C/C(c2cc(Cl)cc(Cl)c2)C(F)(F)F)ccc1-n1cncn1 (stereo not drawn) [DC51] | 50 to 100 | 50 to 100

Row | Compound | mortality at 50 µg/cm2 [1] [%] | mortality at 50 µg/cm2 [2] [%]
18 | O=C(NC1CCN(C(=O)CC(F)(F)F)CC1)c1ccc(/C=C/C(c2cc(Cl)c(Cl)c(Cl)c2)C(F)(F)F)cc1Br (stereo not drawn) [AC104, (E)-2-bromo-4-(4,4,4-trifluoro-3-(3,4,5-trichlorophenyl)but-1-en-1-yl)-N-(1-(3,3,3-trifluoropropanoyl)piperidin-4-yl)benzamide] | 50 to 100 | 50 to 100
19 | O=C(NCc1ccc(/C=C/C(c2cc(Cl)c(Cl)c(Cl)c2)C(F)(F)F)cc1Cl)C(=O)NCC(F)(F)F (stereo not drawn) [CC42, (E)-N^1-(2-chloro-4-(4,4,4-trifluoro-3-(3,4,5-trichlorophenyl)but-1-en-1-yl)benzyl)-N^2-(2,2,2-trifluoroethyl)oxalamide] | 0 | 0
20 | Fc1cc(F)cc(C(/C=C/c2ccc(-n3cncn3)cc2)C(F)(F)F)c1 (stereo not drawn) [DC8] | 50 to 100 | 0
21 | Cc1cc(-n2cncn2)ccc1/C=C/C(c1cc(Cl)cc(Cl)c1)C(F)(F)F (stereo not drawn) [DC65] | 0 | 50 to 100
22 | O=C(Cn1ncc2cc(/C=C/C(c3cc(Cl)c(F)c(Cl)c3)C(F)(F)F)ccc2c1=O)NCC(F)(F)F (stereo not drawn) [BC14, (E)-2-(6-(3-(3,5-dichloro-4-fluorophenyl)-4,4,4-trifluorobut-1-en-1-yl)-1-oxophthalazin-2(1H)-yl)-N-(2,2,2-trifluoroethyl)acetamide] | 50 to 100 | 0
23 | O=C(CNC(=O)c1ccc(/C=C\C(c2cc(Cl)c(Cl)c(Cl)c2)C(F)(F)F)cc1Br)NCC(F)(F)F (stereo not drawn) [AC95, (Z)-2-bromo-N-(2-oxo-2-((2,2,2-trifluoroethyl)amino)ethyl)-4-(4,4,4-trifluoro-3-(3,4,5-trichlorophenyl)but-1-en-1-yl)benzamide] | 50 to 100 | 50 to 100
24 | O=C(NCc1ccc(Cl)nc1)c1ccc(/C=C/C(c2cc(Cl)c(Cl)c(Cl)c2)C(F)(F)F)cc1Cl (stereo not drawn) [AC28] | 50 to 100 | 50 to 100
25 | O=C(NC1CCNCC1)c1ccc(/C=C/C(c2cc(Cl)c(Cl)c(Cl)c2)C(F)(F)F)cc1Br (stereo not drawn) [AC114, (E)-2-bromo-N-(piperidin-4-yl)-4-(4,4,4-trifluoro-3-(3,4,5-trichlorophenyl)but-1-en-1-yl)benzamide] | 50 to 100 | 0 to 50
26 | CC(=O)Nc1ncn(-c2ccc(/C=C/C(c3cc(Cl)cc(Cl)c3)C(F)(F)F)cc2C#N)n1 (stereo not drawn) [DC39] | 50 to 100 | 50 to 100
27 | O=C(CNC(=O)c1ccc(/C=C/C(c2ccc(F)c(Cl)c2)C(F)(F)F)cc1Br)NCC(F)(F)F (stereo not drawn) [AC99] | 50 to 100 | 50 to 100
28 | Fc1cc(/C=C/C(c2cc(Cl)cc(Cl)c2)C(F)(F)F)ccc1-n1cncn1 (stereo not drawn) [DC48] | 50 to 100 | 50 to 100
29 | O=Cc1cc(/C=C/C(c2cc(Cl)cc(Cl)c2)C(F)(F)F)ccc1-n1cncn1 (stereo not drawn) [DC52, (E)-5-(3-(3,5-dichlorophenyl)-4,4,4-trifluorobut-1-en-1-yl)-2-(1H-1,2,4-triazol-1-yl)benzaldehyde] | 0 | 0
30 | Cc1cc(/C=C/C(c2cc(Cl)c(Cl)c(Cl)c2)C(F)(F)F)cc(C#N)c1-n1cncn1 (stereo not drawn) [DC45] | 50 to 100 | 50 to 100
31 | Cc1cc(/C=C/C(c2cc(Cl)cc(Cl)c2)C(F)(F)F)ccc1C(=O)NC1CSC1 (stereo not drawn) [AC10] | 50 to 100 | 50 to 100
32 | CCNC(=O)NCc1ccc(/C=C/C(c2cc(Cl)cc(Cl)c2)C(F)(F)F)cc1Cl (stereo not drawn) [CC31, (E)-1-(2-chloro-4-(3-(3,5-dichlorophenyl)-4,4,4-trifluorobut-1-en-1-yl)benzyl)-3-ethylurea] | 0 to 50 | 0
33 | O=C(CC(F)(F)F)NCc1ccc(/C=C/C(c2cc(Cl)c(Cl)c(Cl)c2)C(F)(F)F)cc1 (stereo not drawn) [CC6] | 50 to 100 | 50 to 100

Reference: US9615576B2, “Pesticidal compositions and processes related thereto” (Dow AgroSciences LLC, priority 2011, dated 2017)
